Measurements published in patent US9695155B2, “Herbicidal substituted pyrimidinyloxy benzene compounds” (E. I. DU PONT DE NEMOURS AND COMPANY, priority 2013, dated 2017).

How the values were obtained:
barnyardgrass [1] = assay: Test A preemergence; assay type: in vivo, Echinochloa crus-galli
Source text: (§1) Seeds of plant species selected from barnyardgrass (Echinochloa crus-galli), kochia (Kochia scoparia), ragweed (common ragweed, Ambrosia elatior), Italian ryegrass (Lolium multiflorum), large (Lg) crabgrass (Digitaria sanguinalis), giant foxtail (Setaria faberii), morningglory (Ipomoea spp.), pigweed (Amaranthus retroflexus), velvetleaf (Abutilon theophrasti), wheat (Triticum aestivum), and corn (Zea mays) were planted into a blend of loam soil and sand and treated preemergence with a directed soil spray using test chemicals formulated in a non-phytotoxic solvent mixture which included a surfactant.
(§2) At the same time, plants selected from these crop and weed species and also blackgrass (Alopecurus myosuroides), and galium (catchweed bedstraw, Galium aparine) were planted in pots containing the same blend of loam soil and sand and treated with postemergence applications of test chemicals formulated in the same manner. Plants ranged in height from 2 to 10 cm and were in the one- to two-leaf stage for the postemergence treatment. Treated plants and untreated controls were maintained in a greenhouse for approximately 10 days, after which time all treated plants were compared to untreated controls and visually evaluated for injury. Plant response ratings, summarized in Table A, are based on a 0 to 100 scale where 0 is no effect and 100 is complete control. A dash (-) response means no test result.

large (Lg) crabgrass [2] = assay: Test A preemergence; assay type: in vivo, Digitaria sanguinalis
Source text: as §1, §2

giant foxtail [3] = assay: Test A preemergence; assay type: in vivo, Setaria faberii
Source text: as §1, §2

morningglory [4] = assay: Test A preemergence; assay type: in vivo, Ipomoea spp.
Source text: as §1, §2

pigweed [5] = assay: Test A preemergence; assay type: in vivo, Amaranthus retroflexus
Source text: as §1, §2

velvetleaf [6] = assay: Test A preemergence; assay type: in vivo, Abutilon theophrasti
Source text: as §1, §2

wheat [7] = assay: Test A preemergence; assay type: in vivo, Triticum aestivum
Source text: as §1, §2

corn [8] = assay: Test A preemergence; assay type: in vivo, Zea mays
Source text: as §1, §2

barnyardgrass [9] = assay: Test A postemergence; assay type: in vivo, Echinochloa crus-galli
Source text: as §1, §2

large (Lg) crabgrass [10] = assay: Test A postemergence; assay type: in vivo, Digitaria sanguinalis
Source text: as §1, §2

giant foxtail [11] = assay: Test A postemergence; assay type: in vivo, Setaria faberii
Source text: as §1, §2

morningglory [12] = assay: Test A postemergence; assay type: in vivo, Ipomoea spp.
Source text: as §1, §2

pigweed [13] = assay: Test A postemergence; assay type: in vivo, Amaranthus retroflexus
Source text: as §1, §2

velvetleaf [14] = assay: Test A postemergence; assay type: in vivo, Abutilon theophrasti
Source text: as §1, §2

wheat [15] = assay: Test A postemergence; assay type: in vivo, Triticum aestivum
Source text: as §1, §2

corn [16] = assay: Test A postemergence; assay type: in vivo, Zea mays
Source text: as §1, §2

[17] = 1000 g ai/ha, 0 to 100 scale, 0 no effect, 100 complete control
[18] = 1000 g ai/ha, 0 to 100 scale, 0 no effect, 100 complete control, approx. 10 days
[19] = 500 g ai/ha, 0 to 100 scale where 0 is no effect and 100 is complete control

Clc1cnc(Oc2ccccc2-n2cccn2)nc1 [Compound 12, 5-chloro-2-[2-(1H-pyrazol-1-yl)phenoxy]pyrimidine]
pest or weed control at 1000 g/ha (barnyardgrass [1]; Echinochloa crus-galli, pre-emergence, 240 h, 1000 g ai/ha, 0 to 100 scale, 0 no effect, 100 complete control, read-out: Plant response rating, Barnyardgrass): 100% | pest or weed control at 1000 g/ha (large (Lg) crabgrass [2]; Digitaria sanguinalis, pre-emergence, 240 h, 1000 g ai/ha, 0 to 100 scale, 0 no effect, 100 complete control, read-out: Plant response rating, Crabgrass, Large): 100% | pest or weed control at 1000 g/ha (giant foxtail [3]; Setaria faberi, pre-emergence, 240 h, 1000 g ai/ha, 0 to 100 scale, 0 no effect, 100 complete control, approx. 10 days, read-out: Foxtail, Giant plant response rating): 100% | pest or weed control at 1000 g/ha (morningglory [4]; Ipomoea, pre-emergence, 240 h, 1000 g ai/ha, 0 to 100 scale, 0 no effect, 100 complete control, approx. 10 days, read-out: Morningglory plant response rating): 0% | pest or weed control at 1000 g/ha (pigweed [5]; Amaranthus retroflexus, pre-emergence, 240 h, 1000 g ai/ha, 0 to 100 scale, 0 no effect, 100 complete control, approx. 10 days, read-out: Pigweed plant response rating): 100% | pest or weed control at 1000 g/ha (velvetleaf [6]; Abutilon theophrasti, pre-emergence, 240 h, 1000 g ai/ha, 0 to 100 scale, 0 no effect, 100 complete control, approx. 10 days, read-out: Velvetleaf plant response rating): 100% | plant injury at 1000 g/ha (wheat [7]; Triticum aestivum, pre-emergence, 240 h, 1000 g ai/ha, 0 to 100 scale, 0 no effect, 100 complete control, approx. 10 days, read-out: Wheat plant response rating): 20% | Corn plant response rating (crop injury, 0 = no effect, 100 = complete kill) at 1000 g/ha (corn [8]; Zea mays, pre-emergence, 240 h, 1000 g ai/ha, 0 to 100 scale, 0 no effect, 100 complete control): 0% | pest or weed control at 1000 g/ha (barnyardgrass [9]; Echinochloa crus-galli, post-emergence, 240 h, 1000 g ai/ha, 0 to 100 scale, 0 no effect, 100 complete control, read-out: Plant response rating Barnyardgrass): 90% | pest or weed control at 1000 g/ha (large (Lg) crabgrass [10]; Digitaria sanguinalis, post-emergence, 240 h, 1000 g ai/ha, 0 to 100 scale, 0 no effect, 100 complete control, read-out: Plant response rating Crabgrass, Large): 80% | pest or weed control at 1000 g/ha (giant foxtail [11]; Setaria faberi, post-emergence, 240 h, 1000 g ai/ha, 0 to 100 scale, 0 no effect, 100 complete control, read-out: Plant response rating Foxtail, Giant): 80% | pest or weed control at 1000 g/ha (morningglory [12]; Ipomoea, post-emergence, 240 h, 1000 g ai/ha, 0 to 100 scale, 0 no effect, 100 complete control, read-out: Plant response rating Morningglory): 90% | pest or weed control at 1000 g/ha (pigweed [13]; Amaranthus retroflexus, post-emergence, 240 h, 1000 g ai/ha, 0 to 100 scale, 0 no effect, 100 complete control, read-out: Plant response rating Pigweed): 100% | pest or weed control at 1000 g/ha (velvetleaf [14]; Abutilon theophrasti, post-emergence, 240 h, 1000 g ai/ha, 0 to 100 scale, 0 no effect, 100 complete control, read-out: Plant response rating Velvetleaf): 100% | plant injury at 1000 g/ha (wheat [15]; Triticum aestivum, post-emergence, 240 h, 1000 g ai/ha, 0 to 100 scale, 0 no effect, 100 complete control, read-out: Plant response rating Wheat): 20% | plant injury at 1000 g/ha (corn [16]; Zea mays, post-emergence, 240 h, 1000 g ai/ha, 0 to 100 scale, 0 no effect, 100 complete control, read-out: Plant response rating Corn): 30%

CC(=O)Oc1cccc(Oc2ncc(Cl)cn2)c1-n1cc(Br)cn1 [Compound 67]
Plant response rating, Barnyardgrass (barnyardgrass [1]; [17]): 0 | Plant response rating, Crabgrass, Large (large (Lg) crabgrass [2]; [17]): 20 | Foxtail, Giant plant response rating (giant foxtail [3]; [18]): 10 | Morningglory plant response rating (morningglory [4]; [18]): 0 | Pigweed plant response rating (pigweed [5]; [18]): 100 | Velvetleaf plant response rating (velvetleaf [6]; [18]): 10 | Wheat plant response rating (wheat [7]; [18]): 0 | Plant response rating, Corn (corn [8]; [17]): 0 | Plant response rating, Barnyardgrass (barnyardgrass [9]; [17]): 20 | Plant response rating, Crabgrass, Large (large (Lg) crabgrass [10]; [17]): 10 | Plant response rating, Foxtail, Giant (giant foxtail [11]; [17]): 10 | Plant response rating, Morningglory (morningglory [12]; [17]): 10 | Plant response rating, Pigweed (pigweed [13]; [17]): 100 | Plant response rating, Velvetleaf (velvetleaf [14]; [17]): 70 | Plant response rating, Wheat (wheat [15]; [17]): 0 | Plant response rating, Corn (corn [16]; [17]): 10

N#CCOc1cccc(Oc2ncc(Cl)cn2)c1-n1cc(Br)cn1 [Compound 70]
Plant response rating, Barnyardgrass (barnyardgrass [1]; [17]): 50 | Plant response rating, Crabgrass, Large (large (Lg) crabgrass [2]; [17]): 90 | Foxtail, Giant plant response rating (giant foxtail [3]; [18]): 60 | Morningglory plant response rating (morningglory [4]; [18]): 10 | Pigweed plant response rating (pigweed [5]; [18]): 90 | Velvetleaf plant response rating (velvetleaf [6]; [18]): 70 | Wheat plant response rating (wheat [7]; [18]): 0 | Plant response rating, Corn (corn [8]; [17]): 0 | Plant response rating, Barnyardgrass (barnyardgrass [9]; [17]): 80 | Plant response rating, Crabgrass, Large (large (Lg) crabgrass [10]; [17]): 60 | Plant response rating, Foxtail, Giant (giant foxtail [11]; [17]): 60 | Plant response rating, Morningglory (morningglory [12]; [17]): 20 | Plant response rating, Pigweed (pigweed [13]; [17]): 70 | Plant response rating, Velvetleaf (velvetleaf [14]; [17]): 70 | Plant response rating, Wheat (wheat [15]; [17]): 0 | Plant response rating, Corn (corn [16]; [17]): 10

Fc1cccc(Oc2ncc(Cl)cn2)c1-n1cccn1 [Compound 176]
Barnyardgrass plant response rating (barnyardgrass [1]; [19]): 60 | Crabgrass, Large plant response rating (large (Lg) crabgrass [2]; [19]): 100 | Foxtail, Giant plant response rating (giant foxtail [3]; [19]): 100 | Morningglory plant response rating (morningglory [4]; [19]): 0 | Pigweed plant response rating (pigweed [5]; [19]): 100 | Velvetleaf plant response rating (velvetleaf [6]; [19]): 90 | Wheat plant response rating (wheat [7]; [19]): 0 | Corn plant response rating (corn [8]; [19]): 0 | Plant response rating, Barnyardgrass (barnyardgrass [9]; [19]): 40 | Plant response rating, Crabgrass, Large (large (Lg) crabgrass [10]; [19]): 40 | Plant response rating, Foxtail, Giant (giant foxtail [11]; [19]): 50 | Plant response rating, Morningglory (morningglory [12]; [19]): 80 | Plant response rating, Pigweed (pigweed [13]; [19]): 100 | Plant response rating, Velvetleaf (velvetleaf [14]; [19]): 90 | Plant response rating, Wheat (wheat [15]; [19]): 10 | Plant response rating, Corn (corn [16]; [19]): 20

COc1ccc(I)c(-n2cc(Br)cn2)c1Oc1ncc(Cl)cn1 [Compound 207]
Barnyardgrass plant response rating (barnyardgrass [1]; [18]): 0 | Crabgrass, Large plant response rating (large (Lg) crabgrass [2]; [18]): 50 | Foxtail, Giant plant response rating (giant foxtail [3]; [18]): 50 | Morningglory plant response rating (morningglory [4]; [18]): 0 | Pigweed plant response rating (pigweed [5]; [18]): 0 | Velvetleaf plant response rating (velvetleaf [6]; [18]): 30 | Wheat plant response rating (wheat [7]; [18]): 0 | Corn plant response rating (corn [8]; [18]): 0 | Plant response rating, Barnyardgrass (barnyardgrass [9]; [17]): 10 | Plant response rating, Crabgrass, Large (large (Lg) crabgrass [10]; [17]): 40 | Plant response rating, Foxtail, Giant (giant foxtail [11]; [17]): 60 | Plant response rating, Morningglory (morningglory [12]; [17]): 30 | Plant response rating, Pigweed (pigweed [13]; [17]): 70 | Plant response rating, Velvetleaf (velvetleaf [14]; [17]): 30 | Plant response rating, Wheat (wheat [15]; [17]): 0 | Plant response rating, Corn (corn [16]; [17]): 0

Oc1cccc(Oc2ncc(Cl)cn2)c1-n1cc(Cl)cn1 [Compound 229]
Barnyardgrass plant response rating (barnyardgrass [1]; [18]): 0 | Crabgrass, Large plant response rating (large (Lg) crabgrass [2]; [18]): 10 | Foxtail, Giant plant response rating (giant foxtail [3]; [18]): 0 | Morningglory plant response rating (morningglory [4]; [18]): 0 | Pigweed plant response rating (pigweed [5]; [18]): 100 | Velvetleaf plant response rating (velvetleaf [6]; [18]): 0 | Wheat plant response rating (wheat [7]; [18]): 0 | Corn plant response rating (corn [8]; [18]): 0 | Plant response rating, Barnyardgrass (barnyardgrass [9]; [17]): 0 | Plant response rating, Crabgrass, Large (large (Lg) crabgrass [10]; [17]): 0 | Plant response rating, Foxtail, Giant (giant foxtail [11]; [17]): 0 | Plant response rating, Morningglory (morningglory [12]; [17]): 0 | Plant response rating, Pigweed (pigweed [13]; [17]): 60 | Plant response rating, Velvetleaf (velvetleaf [14]; [17]): 0 | Plant response rating, Wheat (wheat [15]; [17]): 0 | Plant response rating, Corn (corn [16]; [17]): 0

Fc1cc(F)cc(-c2cn(-c3c(Br)cccc3Oc3ncc(Cl)cn3)nn2)c1 [Compound 303]
Barnyardgrass plant response rating (barnyardgrass [1]; [18]): 0 | Crabgrass, Large plant response rating (large (Lg) crabgrass [2]; [18]): 60 | Foxtail, Giant plant response rating (giant foxtail [3]; [18]): 50 | Morningglory plant response rating (morningglory [4]; [18]): 0 | Pigweed plant response rating (pigweed [5]; [18]): 80 | Velvetleaf plant response rating (velvetleaf [6]; [18]): 0 | Wheat plant response rating (wheat [7]; [18]): 0 | Corn plant response rating (corn [8]; [18]): 0 | Plant response rating, Barnyardgrass (barnyardgrass [9]; [17]): 20 | Plant response rating, Crabgrass, Large (large (Lg) crabgrass [10]; [17]): 20 | Plant response rating, Foxtail, Giant (giant foxtail [11]; [17]): 20 | Plant response rating, Morningglory (morningglory [12]; [17]): 30 | Plant response rating, Pigweed (pigweed [13]; [17]): 90 | Plant response rating, Velvetleaf (velvetleaf [14]; [17]): 70 | Plant response rating, Wheat (wheat [15]; [17]): 0 | Plant response rating, Corn (corn [16]; [17]): 10
